{
  "source": "patent US20200239398A1",
  "about": "“METHYLENE-CYCLOALKYLACETATE DERIVATIVES AND THEIR USE IN TREATMENT OF NEUROTROPIC CONDITIONS” (Yissum Research Development Company of The Hebrew …, priority 2018, published 2020)",
  "key": {"[1]": {"target": "T1, Lymphocyte Cell-Specific Protein-Tyrosine Kinase (Src family) (LCK) (Homo sapiens, UniProt P06239)", "T1 construct": "DiscoverX (KINOMEscan)", "experiment": "SAFETYscan LCK kinase Binding", "settings": "Inhibitor mode, 10 μM HU-MCA-13, read-out: Maximal Response"}, "[2]": {"target": "T2, Norepinephrine transporter (NET) (Homo sapiens, UniProt P23975)", "T2 construct": "DiscoverX (SAFETYscan contract panel)", "T2 sequence (P23975 whole entry)": "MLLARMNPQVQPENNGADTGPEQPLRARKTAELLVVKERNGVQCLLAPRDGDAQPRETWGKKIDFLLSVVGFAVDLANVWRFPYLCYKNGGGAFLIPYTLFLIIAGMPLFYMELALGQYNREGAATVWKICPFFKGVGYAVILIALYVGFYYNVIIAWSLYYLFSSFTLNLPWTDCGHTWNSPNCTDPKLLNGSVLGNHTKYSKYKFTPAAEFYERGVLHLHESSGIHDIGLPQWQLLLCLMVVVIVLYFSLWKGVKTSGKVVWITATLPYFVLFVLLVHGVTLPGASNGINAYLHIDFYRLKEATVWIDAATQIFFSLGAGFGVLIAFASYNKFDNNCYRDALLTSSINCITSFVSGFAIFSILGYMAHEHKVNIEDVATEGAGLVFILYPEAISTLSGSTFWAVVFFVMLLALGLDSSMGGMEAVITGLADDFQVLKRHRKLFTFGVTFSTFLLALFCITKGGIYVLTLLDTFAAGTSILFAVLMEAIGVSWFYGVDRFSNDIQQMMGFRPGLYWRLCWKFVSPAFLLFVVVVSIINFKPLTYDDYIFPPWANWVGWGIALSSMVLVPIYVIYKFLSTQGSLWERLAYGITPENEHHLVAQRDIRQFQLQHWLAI", "experiment": "SAFETYscan NET Transporter", "format": "cell-based", "settings": "Blocker mode; 10 μM HU-MCA-13; read-out: Maximal Response"}, "PC12 cells": {"test_system": "PC12 cells", "experiment": "Additive neurotropic effect between HU-MCA-13 and NGF, PC12 neurite outgrowth", "format": "cell-based, rat", "protocol": "PC12 cells were cultured in T-200 flasks in high glucose (4.5 gr/L) DMEM medium supplemented with 7% FCS, 7% horse serum and 1% penicillin and streptomycin. Cells will be maintained at 37° C. in a humidified incubator containing 6% CO2. All experiments were carried out in a GLP clean room, according to ISO 7 requirements (10,000 particles/m^3). For neurotropic experiments, tissue culture Falcon plates were coated with 200 μg/ml collagen type 1 and placed under UV light for 30 minutes for sterilization. Thereafter, one ml of PC12 cell suspension (5000 cells/well) was applied in 12 or 24 well plate, respectively. The cultures were maintained in the incubator two days before exposure to investigated compound. Each neurotropic experiment contained two controls. The first consisted of untreated cells (negative control), representing the random effect: “noise signal”—the ability of cells to spontaneously grow neurite outgrowth which in seven days are of a length less than two-fold cell diameter. Also, negative controls consisted of cultures treated with 1% DMSO, solvent used to solubilize HU-MCA-13. The positive controls represented neuronal cultures treated with 50 ng/ml NGF, indicating maximal neurite outgrowth that can be achieved in this model. The experimental group consisted of PC12 cells treated with 10 μM HU-MCA-13. In each experiment, after two and seven days, six cultures will be evaluated for neurotropic effect. These consecutive observations allow measurement of the progress of neurite outgrowth elongation and the percentage of cells with neurites (Katzir et al. A quantitative bioassay for nerve growth factor, using PC12 clones expressing different levels of trkA receptors. J Mol Neurosci. 2002; 18(3):251-64). In order to assess neurotropic effect, the neurite outgrowth length in each culture was quantified. For this purpose, each culture was placed under an inverted microscope and photographed by the attached camera. Each well was photographed at three to five representative areas. After acquiring the photos, they were analyzed by ImageJ, NIH software. The neurite outgrowth was estimated by fractal dimension (Df), a statistical parameter that describes the fractional space (area and length) filled by neurite outgrowth. Df ranged from 0 to 1.20. This method estimated the amount of picsels covered by neurites/cells compared to empty space per square field, and therefore plotting log(number of square boxes) vs. log(size in pixels) relationship generated a linear curve with Df representing the slope of the curve. Every photograph that was taken, was opened in a Photoshop software and a new layer was generated on it. Using a 5-pixel wide digital pencil tool, all the outgrowths were marked and the layer with the markers (outgrowth network) were saved in a 0-255 gray scale. Thereafter, the saved layer was opened by ImageJ NIH software.\nUsing an established PC12 neurotropic in vitro assay, the regenerative enhancing effect of HU-MCA-13 when applied concomitantly, together with NGF, a known neurotrophin was investigated. […] NGF alone, as positive control, at the conventional dose of 50 ng/ml enhanced neurite outgrowth to a Df value of 0.54 at 2 days and 0.4 at 7 days of treatment (FIG. 5). To verify a possible additive effect, the cultures with a mixture of low dose NGF (1 ng/ml generating 10% neurite outgrowth=Df of 0.05) and 1 μM HU-MCA-13 generating about 10-15% neurite outgrowth=Df of 0.04) were tested and found after 2 days a Df of 0.85 and after 7 days a Df of 0.38. NGF is released by hematopoietic cells during polyneuropathy inflammatory process, this finding further strength the possibility of a potential enhancement regenerative effect of this drug upon in vivo therapy."}, "[3]": {"target": "T3, cAMP-specific 3′,5′-cyclic phosphodiesterase 4D2 (PDE4D2) (Homo sapiens, UniProt Q08499)", "T3 construct": "DiscoverX (SAFETYscan contract panel)", "T3 sequence (Q08499 303-809 limits assumed)": "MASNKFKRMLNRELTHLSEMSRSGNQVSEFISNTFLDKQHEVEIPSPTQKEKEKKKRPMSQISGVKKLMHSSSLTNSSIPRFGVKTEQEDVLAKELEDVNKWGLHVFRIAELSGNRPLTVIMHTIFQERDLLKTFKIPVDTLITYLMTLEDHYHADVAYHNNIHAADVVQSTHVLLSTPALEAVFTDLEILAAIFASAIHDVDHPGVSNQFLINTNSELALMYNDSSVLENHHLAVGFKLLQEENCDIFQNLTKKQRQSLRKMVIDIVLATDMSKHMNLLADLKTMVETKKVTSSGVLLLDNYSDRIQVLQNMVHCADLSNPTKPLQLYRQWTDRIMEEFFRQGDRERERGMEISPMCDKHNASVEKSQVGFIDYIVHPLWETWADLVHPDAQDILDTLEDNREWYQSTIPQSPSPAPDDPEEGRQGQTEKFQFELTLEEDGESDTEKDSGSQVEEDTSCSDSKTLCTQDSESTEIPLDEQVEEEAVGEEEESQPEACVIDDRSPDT", "experiment": "SAFETYscan PDE4D2 Enzymatic", "format": "biochemical", "settings": "Inhibitor mode; 10 μM HU-MCA-13; read-out: Maximal Response"}, "[4]": {"target": "T4, Acetylcholinesterase (AChE) (Homo sapiens, UniProt P22303)", "T4 construct": "DiscoverX (SAFETYscan contract panel)", "T4 sequence (P22303 32-614)": "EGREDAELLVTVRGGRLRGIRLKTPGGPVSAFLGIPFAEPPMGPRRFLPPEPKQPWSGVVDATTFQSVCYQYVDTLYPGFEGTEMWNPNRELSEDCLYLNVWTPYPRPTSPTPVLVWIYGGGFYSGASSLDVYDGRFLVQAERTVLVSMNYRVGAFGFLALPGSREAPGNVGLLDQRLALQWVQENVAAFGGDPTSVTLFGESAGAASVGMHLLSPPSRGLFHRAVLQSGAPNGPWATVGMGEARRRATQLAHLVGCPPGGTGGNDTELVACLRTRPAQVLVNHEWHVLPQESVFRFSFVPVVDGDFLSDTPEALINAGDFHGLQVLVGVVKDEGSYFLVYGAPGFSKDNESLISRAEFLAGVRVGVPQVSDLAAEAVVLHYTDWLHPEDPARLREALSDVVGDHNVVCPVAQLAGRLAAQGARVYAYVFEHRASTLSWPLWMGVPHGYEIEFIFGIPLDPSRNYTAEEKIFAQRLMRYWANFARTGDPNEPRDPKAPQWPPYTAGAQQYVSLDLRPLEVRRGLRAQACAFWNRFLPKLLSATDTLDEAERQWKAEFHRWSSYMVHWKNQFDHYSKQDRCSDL", "experiment": "SAFETYscan AChE Enzymatic", "format": "biochemical", "settings": "Inhibitor mode; 10 μM HU-MCA-13; read-out: Maximal Response"}, "male C57BL/6 mice": {"test_system": "male C57BL/6 mice", "experiment": "Blood analysis 24 hours after injection", "format": "in vivo", "protocol": "Tail vein blood samples were taken from DMSO 1% treated control (n=3) and HU-MCA-13-injected mice (n=4) after 24 hours from injection and submitted for hematocrit cell counting and biochemical analysis. Blood analyses are depicted in FIG. 4. No difference in any assay (blood count, electrolytes, coagulation parameters) was noted between the DMSO and HU-MCA-13-injected mice. Of special importance are normal liver (ALP, AST, ALT) functions and normal kidney (creatinine and blood urea nitrogen) functions, indicating sufficient organ integrity at the end of the experimental period."}, "[5]": {"target": "5-Hydroxytryptamine (Serotonin) Receptor 2A (HTR2A) (Homo sapiens, UniProt P28223)", "sequence (P28223 whole entry)": "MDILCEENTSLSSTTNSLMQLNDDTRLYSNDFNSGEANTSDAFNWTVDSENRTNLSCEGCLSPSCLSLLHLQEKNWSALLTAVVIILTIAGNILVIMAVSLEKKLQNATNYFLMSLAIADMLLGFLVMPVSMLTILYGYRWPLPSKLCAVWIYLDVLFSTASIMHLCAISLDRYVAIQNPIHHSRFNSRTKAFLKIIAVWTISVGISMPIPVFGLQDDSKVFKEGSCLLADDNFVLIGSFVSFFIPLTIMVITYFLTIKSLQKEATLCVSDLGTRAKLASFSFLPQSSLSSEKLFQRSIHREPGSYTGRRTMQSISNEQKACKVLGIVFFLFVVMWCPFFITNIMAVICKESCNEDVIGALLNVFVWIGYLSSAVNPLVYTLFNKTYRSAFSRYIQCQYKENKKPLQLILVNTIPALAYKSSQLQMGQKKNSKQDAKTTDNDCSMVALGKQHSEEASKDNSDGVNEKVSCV", "experiment": "SAFETYscan HTR2A Calcium Flux", "format": "cell-based", "settings": "10 μM HU-MCA-13, read-out: Maximal Response"}, "[6]": {"target": "Adrenergic Receptor β2 (ADRB2) (Homo sapiens, UniProt P07550)", "sequence (P07550 whole entry)": "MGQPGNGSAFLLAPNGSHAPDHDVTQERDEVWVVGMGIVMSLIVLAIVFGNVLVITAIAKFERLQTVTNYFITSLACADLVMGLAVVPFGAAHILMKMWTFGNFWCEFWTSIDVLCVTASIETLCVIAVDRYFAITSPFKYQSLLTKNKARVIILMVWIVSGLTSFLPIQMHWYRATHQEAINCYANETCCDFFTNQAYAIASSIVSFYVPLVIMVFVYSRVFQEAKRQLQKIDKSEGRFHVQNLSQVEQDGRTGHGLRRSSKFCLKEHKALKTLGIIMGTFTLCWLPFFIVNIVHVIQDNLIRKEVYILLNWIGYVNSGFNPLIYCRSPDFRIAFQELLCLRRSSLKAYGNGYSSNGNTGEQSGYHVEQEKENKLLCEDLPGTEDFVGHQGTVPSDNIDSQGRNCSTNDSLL", "experiment": "SAFETYscan ADRB2 cAMP", "format": "cell-based", "settings": "10 μM HU-MCA-13, read-out: Maximal Response"}, "[7]": {"target": "Cannabinoid Receptor 1 (CNR1) (Homo sapiens, UniProt P21554)", "sequence (P21554 whole entry)": "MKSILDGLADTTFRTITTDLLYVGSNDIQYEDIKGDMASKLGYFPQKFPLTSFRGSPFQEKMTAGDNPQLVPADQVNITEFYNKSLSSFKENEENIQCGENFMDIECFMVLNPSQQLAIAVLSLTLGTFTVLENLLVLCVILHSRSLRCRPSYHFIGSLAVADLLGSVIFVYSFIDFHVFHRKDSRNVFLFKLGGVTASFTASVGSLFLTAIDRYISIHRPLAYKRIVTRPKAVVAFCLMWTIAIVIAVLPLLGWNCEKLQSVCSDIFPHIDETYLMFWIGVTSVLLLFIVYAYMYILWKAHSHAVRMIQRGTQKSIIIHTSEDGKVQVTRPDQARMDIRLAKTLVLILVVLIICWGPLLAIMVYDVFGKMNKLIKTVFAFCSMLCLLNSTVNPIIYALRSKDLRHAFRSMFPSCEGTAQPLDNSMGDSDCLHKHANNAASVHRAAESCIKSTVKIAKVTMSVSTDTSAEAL", "experiment": "SAFETYscan CNR1 cAMP", "format": "cell-based", "settings": "10 μM HU-MCA-13; for Emax: read-out: Maximal Response"}, "[8]": {"target": "Endothelin Receptor Type A (EDNRA) (Homo sapiens, UniProt P25101)", "sequence (P25101 21-427)": "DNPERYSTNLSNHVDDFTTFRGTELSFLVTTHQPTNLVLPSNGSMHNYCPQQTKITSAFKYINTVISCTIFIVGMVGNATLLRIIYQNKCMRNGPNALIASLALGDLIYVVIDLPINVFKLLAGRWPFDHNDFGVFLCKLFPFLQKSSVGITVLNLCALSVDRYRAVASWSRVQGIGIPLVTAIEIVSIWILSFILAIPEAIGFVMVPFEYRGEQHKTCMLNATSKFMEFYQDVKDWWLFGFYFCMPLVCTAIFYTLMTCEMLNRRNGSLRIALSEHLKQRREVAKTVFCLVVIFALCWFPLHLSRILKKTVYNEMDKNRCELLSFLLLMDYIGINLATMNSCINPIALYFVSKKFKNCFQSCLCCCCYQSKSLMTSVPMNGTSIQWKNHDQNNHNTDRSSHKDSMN", "experiment": "SAFETYscan EDNRA Calcium Flux", "format": "cell-based", "settings": "Agonist mode; 10 μM HU-MCA-13; read-out: Maximal Response"}, "[9]": {"target": "T5, Nicotinic acetylcholine Receptor-alpha-4 beta-2 (nAChR (a4/b2)) (Homo sapiens, UniProt P17787+P43681)", "T5 construct": "DiscoverX (SAFETYscan contract panel)", "T5 sequence (P43681 29-627 limits assumed)": "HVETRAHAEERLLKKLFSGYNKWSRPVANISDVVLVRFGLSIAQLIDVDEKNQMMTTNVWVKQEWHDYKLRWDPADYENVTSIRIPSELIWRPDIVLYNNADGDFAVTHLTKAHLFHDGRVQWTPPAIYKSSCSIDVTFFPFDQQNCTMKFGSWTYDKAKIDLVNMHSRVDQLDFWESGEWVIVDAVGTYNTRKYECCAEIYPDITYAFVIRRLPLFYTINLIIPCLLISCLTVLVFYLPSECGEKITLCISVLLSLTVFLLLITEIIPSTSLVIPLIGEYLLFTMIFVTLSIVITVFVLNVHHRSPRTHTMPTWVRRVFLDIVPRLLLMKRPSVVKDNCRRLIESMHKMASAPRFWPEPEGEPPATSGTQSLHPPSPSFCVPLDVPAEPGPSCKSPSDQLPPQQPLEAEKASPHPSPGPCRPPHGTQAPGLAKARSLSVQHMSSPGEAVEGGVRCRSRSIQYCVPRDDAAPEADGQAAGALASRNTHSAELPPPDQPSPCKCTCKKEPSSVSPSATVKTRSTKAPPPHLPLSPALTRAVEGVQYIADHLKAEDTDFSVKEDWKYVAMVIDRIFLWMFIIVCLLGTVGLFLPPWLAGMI", "T5 sequence (P17787 26-502)": "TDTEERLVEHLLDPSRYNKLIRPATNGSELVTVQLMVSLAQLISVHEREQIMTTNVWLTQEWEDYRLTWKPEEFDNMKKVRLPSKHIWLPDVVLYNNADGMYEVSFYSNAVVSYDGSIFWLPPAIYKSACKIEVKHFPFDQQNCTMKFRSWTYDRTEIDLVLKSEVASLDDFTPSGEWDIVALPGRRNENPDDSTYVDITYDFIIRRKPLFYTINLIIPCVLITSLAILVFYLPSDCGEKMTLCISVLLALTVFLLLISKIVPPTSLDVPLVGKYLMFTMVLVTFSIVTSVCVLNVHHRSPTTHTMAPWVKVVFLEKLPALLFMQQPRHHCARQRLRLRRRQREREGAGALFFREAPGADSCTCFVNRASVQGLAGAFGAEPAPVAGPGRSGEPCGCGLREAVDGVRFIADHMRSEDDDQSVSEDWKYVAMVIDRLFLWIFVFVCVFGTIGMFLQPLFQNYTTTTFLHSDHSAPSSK", "experiment": "cell-based", "format": "cell-based", "settings": "10 μM HU-MCA-13, read-out: Maximal Response"}},
  "note": "Like-named read-outs stand apart in the source and are kept apart here.",
  "data": [
    {"smiles": "C=CCC1CCC[C@@H](CCC(=O)O)C1=C", "note": "(stereo partly shown) [Compound 13]", "values": [
      {"measurement": "Emax", "setting": "[1]", "result": 12.8, "unit": "%"},
      {"measurement": "Emax", "setting": "[2]", "result": 3.53, "unit": "%"},
      {"measurement": "neurite outgrowth", "setting": "PC12 cells; 1 μM HU-MCA-13", "result": "10-15%"},
      {"measurement": "neurite outgrowth Df", "setting": "PC12 cells; 1 μM HU-MCA-13", "result": 0.04},
      {"measurement": "neurite outgrowth Df", "setting": "PC12 cells; HU-MCA-13 alone at 10 μM, 2 days", "result": 0.36},
      {"measurement": "neurite outgrowth Df", "setting": "PC12 cells; HU-MCA-13 alone at 10 μM, 7 days", "result": 0.30},
      {"measurement": "Emax", "setting": "[3]", "result": 0, "unit": "%"},
      {"measurement": "Emax", "setting": "[4]", "result": 4.27, "unit": "%"},
      {"measurement": "kidney (creatinine and blood urea nitrogen) functions", "setting": "male C57BL/6 mice; 24 hours after 250 mg/kg iv", "result": "normal"},
      {"measurement": "liver (ALP, AST, ALT) functions", "setting": "male C57BL/6 mice; 24 hours after 250 mg/kg iv", "result": "normal"},
      {"measurement": "bilirubin concentration", "setting": "male C57BL/6 mice; in both control and HU-MCA-13-injected mice", "result": "some fluctuation"},
      {"measurement": "blood count, electrolytes, coagulation parameters", "setting": "male C57BL/6 mice; vs DMSO 1% control, 24 hours after 250 mg/kg iv", "result": "No difference"},
      {"measurement": "Emax", "setting": "[5]; Agonist mode", "result": 1.13, "unit": "%"},
      {"measurement": "Emax", "setting": "[5]; Antagonist mode", "result": 0, "unit": "%"},
      {"measurement": "Emax", "setting": "[6]; Agonist mode", "result": 1.29, "unit": "%"},
      {"measurement": "Emax", "setting": "[6]; Antagonist mode", "result": 8.23, "unit": "%"},
      {"measurement": "Maximal Response", "setting": "[7]; Agonist mode", "result": 50.22, "unit": "%"},
      {"measurement": "Emax", "setting": "[7]; Agonist mode", "result": 50.1, "unit": "%"},
      {"measurement": "Emax", "setting": "[7]; Antagonist mode", "result": 0.57, "unit": "%"},
      {"measurement": "Emax", "setting": "[8]", "result": 0, "unit": "%"},
      {"measurement": "Emax", "setting": "[9]; Blocker mode", "result": 5.95, "unit": "%"},
      {"measurement": "Emax", "setting": "[9]; Opener mode", "result": 0, "unit": "%"}
    ]}
  ]
}
